Measurements reported in US20230204587A1, “NOVEL DIAGNOSTIC MARKER FOR PROSTATE CANCER” (URTESTE S.A., priority 2020, published 2023).
Starred links: 1 amine or outer side, 2 acyl side, 3 side chain; linkers in the order of their positions; H or OH if unused. Non-standard residues stand in square brackets, D forms with d. No end group written: not given here. *: point of attachment. Benzoyl(5-NH,2-NO2) = O=C(c1cc(N[*:1])ccc1[N+](=O)[O-])[*:2]; pNA = O=[N+]([O-])c1ccc(N*)cc1; 2Abz = Nc1ccccc1C(=O)O

Columns and labels:
[1] = system: proteolytic enzymes in urine; test: Chromogenic substrate hydrolysis in urine samples (absorbance at 405 nm, 96-well plate); format: biochemical, human; details: for rate of hydrolysis of substrate (increase in absorbance over time): 200 mM Tris-HCl pH 8.0, 37° C., 60 minutes, 405 nm
Experimental: The study on the application of new compounds was performed on a group of 25 patients diagnosed with prostate cancer. For this purpose, the compound with formula: ABZ-Trp-Glu-Gly-Asn-ANB-NH2 or ABZ-Trp-Glu-Gly-Asn-pNA was dissolved in dimethyl sulfoxide (at a concentration of 0.5 mg/mL); 50 μL of this solution was mixed with 120 μl buffer (200 mM Tris-HCl, pH 8.0) and 80 μL of urine of a person with prostate cancer. The measurement was made in a 96-well plate designed for measuring absorbance, and each sample was analysed in triplicate at 37° C. The duration of the measurement was 60 minutes. During the measurement, the wavelength characteristic of the released chromophore (ANB-NH2 or pNA) was monitored at 405 nm (range 380-430 nm).

[2] = system: proteolytic enzymes in urine; test: RP HPLC analysis of substrate hydrolysis in urine from a person diagnosed with prostate cancer; format: biochemical, human; details: randomly selected urine from a person diagnosed with prostate cancer
Experimental: A: ABZ-Trp-Glu-Gly-Asn-ANB-NH2 substrate in 200 mM Tris-HCl buffer, pH 8.0. B: Hydrolysis of ABZ-Trp-Glu-Gly-Asn-pNA substrate in urine of patients diagnosed with prostate cancer.

Substance	rate of hydrolysis of substrate (increase in absorbance over time) ([1]; urine from healthy individuals)	absorbance increase on incubation with urine from various kinds of malignancies ([1]; urine from pancreas, liver, bowel, lung, bile duct, stomach and prostate cancer patients)	rate of hydrolysis of substrate (increase in absorbance over time) ([1]; urine of patients diagnosed with prostate cancer (samples 1-25))	hydrolysis products by RP HPLC [2]
ABZ-Trp-Glu-Gly-Asn-ANB-NH2 ([2Abz]WEGN-{Benzoyl(5-NH,2-NO2)-NH2}) [Compound 1, chromogenic peptide; ABZ is 2-aminobenzoic acid, ANB-NH2 is amide of 5-amino-2-nitrobenzoic acid]	does not lead to an increase in absorbance	absorbance increase is observed only for urine of patient diagnosed with prostate cancer	all samples 1-25 disintegrated	break down into the ABZ-Trp-Glu-Gly-Asn-OH peptide fragment and chromophore
ABZ-Trp-Glu-Gly-Asn-pNA ([2Abz]WEGN-pNA) [Compound 2, chromogenic peptide; ABZ is 2-aminobenzoic acid, pNA is para-nitroaniline]	–	–	–	break down into the ABZ-Trp-Glu-Gly-Asn-OH peptide fragment and chromophore
